Test results as given in PMC3753754, “Andrographis paniculata Extract and Andrographolide Modulate the Hepatic Drug Metabolism System and Plasma Tolbutamide Concentrations in Rats” (Evidence-based Complementary and Alternative Medicine : eCAM, 2013).

Legend:
Format in all cases: in vivo
[1] = target: T1, pregnane X receptor (PXR) (Rattus norvegicus, UniProt Q9R1A7); test: EMSA of liver nuclear protein binding to DR4 consensus sequence; conditions: APE or andrographolide for 5 days
T1 construct: from tissue; host or cells: crude liver nuclear extract of treated Sprague-Dawley rats
T1 sequence (Q9R1A7 1-431): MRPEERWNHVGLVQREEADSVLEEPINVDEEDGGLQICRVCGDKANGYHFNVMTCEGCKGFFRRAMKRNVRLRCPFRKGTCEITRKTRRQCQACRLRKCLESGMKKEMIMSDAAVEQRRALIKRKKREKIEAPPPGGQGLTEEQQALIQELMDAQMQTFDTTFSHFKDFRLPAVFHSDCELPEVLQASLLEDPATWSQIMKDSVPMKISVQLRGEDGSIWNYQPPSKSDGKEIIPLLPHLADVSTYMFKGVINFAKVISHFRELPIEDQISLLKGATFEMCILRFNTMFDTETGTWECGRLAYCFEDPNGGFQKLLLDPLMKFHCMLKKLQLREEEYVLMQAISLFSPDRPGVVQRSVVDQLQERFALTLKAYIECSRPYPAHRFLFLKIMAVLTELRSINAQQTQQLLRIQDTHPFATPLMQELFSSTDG
T1 sequence (Q05343 1-467 partner): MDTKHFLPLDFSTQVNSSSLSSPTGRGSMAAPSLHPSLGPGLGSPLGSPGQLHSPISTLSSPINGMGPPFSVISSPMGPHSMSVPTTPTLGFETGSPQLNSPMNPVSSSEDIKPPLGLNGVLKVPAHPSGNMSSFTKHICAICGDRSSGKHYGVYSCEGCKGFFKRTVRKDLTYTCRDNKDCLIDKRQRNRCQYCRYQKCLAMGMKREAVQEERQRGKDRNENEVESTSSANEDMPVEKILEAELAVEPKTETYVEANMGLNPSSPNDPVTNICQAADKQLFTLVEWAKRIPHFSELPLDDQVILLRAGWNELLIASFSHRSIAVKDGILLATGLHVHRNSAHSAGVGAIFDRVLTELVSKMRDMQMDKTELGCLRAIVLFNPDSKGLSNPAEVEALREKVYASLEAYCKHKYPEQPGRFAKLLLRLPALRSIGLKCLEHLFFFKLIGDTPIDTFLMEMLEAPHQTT
Protocol: Nuclear proteins of liver tissues were extracted as described by Tian et al. with some modifications. Briefly, 0.1 g of liver was homogenized (1 : 9, w/v) with 0.9 mL of ice-cold 10 mM HEPES buffer (pH 7.9) containing 10 mM KCl, 1 mM MgCl2, 0.1 mM EDTA, 0.5 mM dithiothreitol, 0.5 mM PMSF, 4 μg/mL leupeptin, and 20 μg/mL aprotinin. The homogenates were placed in an ice bath for 15 min and then centrifuged at 600 ×g for 10 min. Then, 100 μL of 10% Nonidet P-40 was added to the supernatant, and the samples were allowed to sit in an ice bath for 10 min. The supernatant was centrifuged at 5,000 ×g for 5 min. The pellet, containing crude nuclei, was resuspended in 100 μL of hypertonic buffer containing 10 mM HEPES, 400 mM KCl, 1 mM MgCl2, 0.1 mM EDTA, 0.5 mM dithiothreitol, 4 μg/mL leupeptin, 20 μg/mL aprotinin, 25% glycerol, and 0.5 mM PMSF at 4°C for 45 min. Nuclear proteins were then collected by centrifugation at 12,000 ×g for 15 min.
EMSA was performed according to the method reported previously. The LightShift Chemiluminescent EMSA Kit (Pierce, Rockford, IL) and synthetic biotin-labeled double-stranded consensus oligonucleotides of DR4 (5′-[…]-3′) and xenobiotic response element (XRE) (forward: 5′-[…]-3′) were used to measure pregnane X receptor (PXR) and aryl hydrocarbon receptor (AhR) nuclear protein-DNA-binding activity. […]

[2] = system: P-glycoprotein; test: Immunoblot and RT-PCR of hepatic P-glycoprotein in treated rats; conditions: rat liver; APE or andrographolide for 5 days
Protocol: For P-glycoprotein expression, liver tissue was homogenized with phosphate-buffered saline containing 0.2% Triton X-100, 5 mM EDTA, and 1 mM PMSF. The homogenates were then centrifuged at 10,000 ×g for 30 min at 4°C. Proteins in the resulting supernatants were electrophoretically separated and were immunoblotted with P-glycoprotein antibody. The immunoreactive bands were detected by using an enhanced chemiluminescence plus Western blotting detection reagent (Amersham Biosciences, Boston, MA, USA).
Total RNA in liver samples was extracted by using the Trizol reagent (1 : 20, w/v). […] The sequences for the PCR primers were as follows: for CYP1A1 (forward: 5′-[…]-3′; reverse: 5′-[…]-3′), CYP1A2 (forward: 5′-[…]-3′; reverse: 5′-[…]-3′), CYP2C6 (forward: 5′-[…]-3′; reverse: 5′-[…]-3′), CYP2C11 (forward: 5′-[…]-3′; reverse: 5′-[…]-3′), CYP2D1 (forward: 5′-[…]-3′; reverse: 5′-[…]-3′), CYP2E1 (forward: 5′-[…]-3′; reverse: 5′-[…]-3′), CYP3A1 (forward: 5′-[…]-3′; reverse: 5′-[…]-3′), CYP3A2 (forward: 5′-[…]-3′; reverse: 5′-[…]-3′), and P-glycoprotein (forward: 5′-[…]-3′; reverse: 5′-[…]-3′). […] The PCR amplicons were then electrophoresed in 1% agarose gels containing 40 mM Tris/20 mM glacial acetic acid/2 mM EDTA buffer, and the relative densities of the PCR products were quantitated by use of Image Gauge software (Fujifilm, Tokyo, Japan). […]

[3] = system: CYP2E1; test: Immunoblot and RT-PCR of hepatic CYP2E1 in treated rats; conditions: rat liver; APE or andrographolide for 5 days
Protocol: Aliquots of microsomal protein (10 μg) were electrophoresed in an SDS-polyacrylamide gel, and proteins were then transferred to polyvinylidene fluoride membranes. After blocking, membranes were hybridized with antibodies to CYP1A1, CYP1A2, CYP2C6, CYP2C11, CYP2D1, CYP2E1, CYP3A1, and CYP3A2.
Total RNA in liver samples was extracted by using the Trizol reagent (1 : 20, w/v). […] The sequences for the PCR primers were as follows: for CYP1A1 (forward: 5′-[…]-3′; reverse: 5′-[…]-3′), CYP1A2 (forward: 5′-[…]-3′; reverse: 5′-[…]-3′), CYP2C6 (forward: 5′-[…]-3′; reverse: 5′-[…]-3′), CYP2C11 (forward: 5′-[…]-3′; reverse: 5′-[…]-3′), CYP2D1 (forward: 5′-[…]-3′; reverse: 5′-[…]-3′), CYP2E1 (forward: 5′-[…]-3′; reverse: 5′-[…]-3′), CYP3A1 (forward: 5′-[…]-3′; reverse: 5′-[…]-3′), CYP3A2 (forward: 5′-[…]-3′; reverse: 5′-[…]-3′), and P-glycoprotein (forward: 5′-[…]-3′; reverse: 5′-[…]-3′). The PCR for CYP1A1 was performed as follows: 5 min at 95°C and then 35 cycles of 30 s at 94°C, 30 s at 54°C, and 60 s at 72°C. […] The PCR amplicons were then electrophoresed in 1% agarose gels containing 40 mM Tris/20 mM glacial acetic acid/2 mM EDTA buffer, and the relative densities of the PCR products were quantitated by use of Image Gauge software (Fujifilm, Tokyo, Japan). […]

Binding activity of the DR4 consensus sequence to nuclear protein PXR [1]: enhanced | Protein and mRNA levels of membrane transporter P-glycoprotein [2]: only a minor effect | CYP2E1 protein or mRNA levels compared with controls [3]: no changes
Structure (SMILES): C=C1CC[C@@H]2[C@](C)(CO)[C@H](O)CC[C@@]2(C)[C@@H]1C/C=C1/C(=O)OC[C@H]1O [andrographolide, Andrographolide]
